The record followed here is patent US8133998B2, “Bicyclic pyrimidine derivatives as calcium channel blockers” (Zalicus Pharmaceuticals, Ltd., priority 2007, dated 2012).

Holding throughout (experiment): T-type calcium channel block, whole cell patch clamp in HEK cells
What all share (assay type): cell-based
(In general: In patch-clamp work, channel activity is measured electrically.)

The target of assay [1] is T1, human α1I T-type channels (Homo sapiens, UniProt Q9P0X4).
T1 construct: expressed in transfected cells; host or cells: HEK 293
T1 sequence (Q9P0X4 whole entry): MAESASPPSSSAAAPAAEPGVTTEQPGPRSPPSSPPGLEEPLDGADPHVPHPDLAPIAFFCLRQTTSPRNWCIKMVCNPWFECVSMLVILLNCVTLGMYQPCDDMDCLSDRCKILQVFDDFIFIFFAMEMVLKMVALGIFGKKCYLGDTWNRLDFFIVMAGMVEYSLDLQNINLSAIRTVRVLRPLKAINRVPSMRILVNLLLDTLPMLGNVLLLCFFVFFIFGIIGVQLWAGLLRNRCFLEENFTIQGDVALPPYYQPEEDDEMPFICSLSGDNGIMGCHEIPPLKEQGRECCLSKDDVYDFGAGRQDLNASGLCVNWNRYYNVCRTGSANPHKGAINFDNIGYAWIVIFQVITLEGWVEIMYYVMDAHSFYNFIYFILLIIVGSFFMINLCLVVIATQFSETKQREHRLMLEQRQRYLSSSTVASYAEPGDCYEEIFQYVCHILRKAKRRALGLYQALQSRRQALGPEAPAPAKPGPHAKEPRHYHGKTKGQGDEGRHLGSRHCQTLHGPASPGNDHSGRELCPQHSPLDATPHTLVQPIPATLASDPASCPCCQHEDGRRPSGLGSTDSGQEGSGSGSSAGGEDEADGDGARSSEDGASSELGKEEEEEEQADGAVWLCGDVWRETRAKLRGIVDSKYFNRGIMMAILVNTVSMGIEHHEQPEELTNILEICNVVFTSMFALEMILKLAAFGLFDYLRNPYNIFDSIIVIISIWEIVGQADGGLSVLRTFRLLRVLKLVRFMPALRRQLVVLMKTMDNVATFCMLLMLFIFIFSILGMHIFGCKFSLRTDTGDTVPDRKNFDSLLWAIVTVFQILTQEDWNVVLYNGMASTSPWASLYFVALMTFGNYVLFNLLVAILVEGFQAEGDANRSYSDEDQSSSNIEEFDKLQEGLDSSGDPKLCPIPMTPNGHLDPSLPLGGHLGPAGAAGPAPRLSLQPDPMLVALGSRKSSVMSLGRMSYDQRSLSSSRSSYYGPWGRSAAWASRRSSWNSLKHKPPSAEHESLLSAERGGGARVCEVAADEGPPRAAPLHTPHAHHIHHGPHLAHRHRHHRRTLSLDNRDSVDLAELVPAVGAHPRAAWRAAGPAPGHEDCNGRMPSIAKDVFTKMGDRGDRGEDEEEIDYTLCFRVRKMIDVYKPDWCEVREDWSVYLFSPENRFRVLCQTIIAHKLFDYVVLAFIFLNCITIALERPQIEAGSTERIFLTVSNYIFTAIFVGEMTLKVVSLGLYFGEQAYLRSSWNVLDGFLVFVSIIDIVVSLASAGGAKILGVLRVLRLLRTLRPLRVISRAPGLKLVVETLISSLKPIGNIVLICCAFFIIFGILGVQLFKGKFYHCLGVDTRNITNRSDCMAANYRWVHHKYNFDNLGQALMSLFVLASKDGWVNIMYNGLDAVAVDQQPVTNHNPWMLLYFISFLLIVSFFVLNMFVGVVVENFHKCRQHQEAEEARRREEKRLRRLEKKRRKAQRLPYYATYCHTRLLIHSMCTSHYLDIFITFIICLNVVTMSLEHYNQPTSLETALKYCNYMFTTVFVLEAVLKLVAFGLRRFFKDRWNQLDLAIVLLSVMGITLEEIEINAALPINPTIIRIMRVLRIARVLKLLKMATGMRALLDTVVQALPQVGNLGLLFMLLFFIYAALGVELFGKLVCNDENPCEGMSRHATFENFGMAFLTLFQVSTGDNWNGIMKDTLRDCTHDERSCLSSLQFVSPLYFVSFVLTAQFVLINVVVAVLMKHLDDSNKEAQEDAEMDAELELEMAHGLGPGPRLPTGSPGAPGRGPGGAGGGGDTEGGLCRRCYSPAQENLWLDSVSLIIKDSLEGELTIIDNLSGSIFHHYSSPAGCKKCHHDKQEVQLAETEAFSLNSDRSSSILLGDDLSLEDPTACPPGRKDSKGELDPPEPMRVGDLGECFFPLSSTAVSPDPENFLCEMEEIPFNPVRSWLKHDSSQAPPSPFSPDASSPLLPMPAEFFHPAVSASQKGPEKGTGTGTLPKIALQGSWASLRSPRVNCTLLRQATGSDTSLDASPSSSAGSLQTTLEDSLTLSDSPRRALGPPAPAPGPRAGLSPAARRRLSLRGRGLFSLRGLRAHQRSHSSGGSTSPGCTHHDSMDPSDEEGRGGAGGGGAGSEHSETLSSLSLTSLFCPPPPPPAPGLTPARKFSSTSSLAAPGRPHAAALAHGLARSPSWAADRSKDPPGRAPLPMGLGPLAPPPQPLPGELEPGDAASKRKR
As to conditions: HEK cells stably expressing human α1I; measured at 1 μM drug; mainly non-inactivated protocol. The method, then: (§1) T-type calcium channel blocking activity was assayed in human embryonic kidney cells, HEK 293, stably transfected with the T-type calcium channel subunits. Briefly, cells were cultured in Dulbecco's modified eagle medium (DMEM) supplemented with 10% fetal bovine serum, 200 U/ml penicillin and 0.2 mg/ml streptomycin at 37° C. with 5% CO2. At 85% confluency cells were split with 0.25% trypsin/1 mM EDTA and plated at 10% confluency on glass coverslips. At 12 hours the medium was replaced and the cells stably transfected using a standard calcium phosphate protocol and the appropriate calcium channel cDNA's. Fresh DMEM was supplied and the cells transferred to 28° C./5% CO2. Cells were incubated for 1 to 2 days prior to whole cell recording.
(§2) Standard patch-clamp techniques were employed to identify blockers of T-type currents. Briefly, previously described HEK cell lines stably expressing human α1G, α1H and α1I T-type channels were used for all the recordings (passage #: 4-20, 37° C., 5% CO2). Whole cell patch clamp experiments were performed using an Axopatch 200B amplifier (Axon Instruments, Burlingame, Calif.) linked to a personal computer equipped with pCLAMP software. Data were analyzed using Clampfit (Axon Instruments) and SigmaPlot 4.0 (Jandel Scientific). To obtain T-type currents, plastic dishes containing semi-confluent cells were positioned on the stage of a ZEISS AXIOVERT S100 microscope after replacing the culture medium with external solution (see below). Whole-cell patches were obtained using pipettes (borosilicate glass with filament, O.D.: 1.5 mm, I.D.: 0.86 mm, 10 cm length), fabricated on a SUTTER P-97 puller with resistance values of ˜5 MΩ (see below for internal solution).
(§3) In the non-inactivating protocol, the holding potential is set at −110 mV and with a pre-pulse at −100 mV for 1 second prior to the test pulse at −40 mV for 50 ms. In the inactivation protocol, the pre-pulse is at approximately −85 mV for 1 second, which inactivates about 15% of the T-type channels.
(§4) Test compounds were dissolved in external solution, 0.1-0.01% DMSO. After ˜10 min rest, they were applied by gravity close to the cell using a WPI microfil tubing. The “non-inactivated” pre-pulse was used to examine the resting block of a compound. The “inactivated” protocol was employed to study voltage-dependent block. However, the initial data shown below were mainly obtained using the non-inactivated protocol only. Kd values are shown for various compounds of the invention in Table 4 measured at 1 μM for the drug of interest except for compound 18 which was measured at 200 nM.

Assay [2] addresses T2, human α1H T-type channels (Homo sapiens, UniProt O95180).
T2 construct: expressed in transfected cells; host or cells: HEK 293
The settings on record: HEK cells stably expressing human α1H; measured at 1 μM drug; mainly non-inactivated protocol. The method, then: as §1, §2, §3, §4

In assay [3] the target is T3, human α1G T-type channels (Homo sapiens, UniProt O43497).
T3 construct: expressed in transfected cells; host or cells: HEK 293
T3 sequence (O43497 whole entry): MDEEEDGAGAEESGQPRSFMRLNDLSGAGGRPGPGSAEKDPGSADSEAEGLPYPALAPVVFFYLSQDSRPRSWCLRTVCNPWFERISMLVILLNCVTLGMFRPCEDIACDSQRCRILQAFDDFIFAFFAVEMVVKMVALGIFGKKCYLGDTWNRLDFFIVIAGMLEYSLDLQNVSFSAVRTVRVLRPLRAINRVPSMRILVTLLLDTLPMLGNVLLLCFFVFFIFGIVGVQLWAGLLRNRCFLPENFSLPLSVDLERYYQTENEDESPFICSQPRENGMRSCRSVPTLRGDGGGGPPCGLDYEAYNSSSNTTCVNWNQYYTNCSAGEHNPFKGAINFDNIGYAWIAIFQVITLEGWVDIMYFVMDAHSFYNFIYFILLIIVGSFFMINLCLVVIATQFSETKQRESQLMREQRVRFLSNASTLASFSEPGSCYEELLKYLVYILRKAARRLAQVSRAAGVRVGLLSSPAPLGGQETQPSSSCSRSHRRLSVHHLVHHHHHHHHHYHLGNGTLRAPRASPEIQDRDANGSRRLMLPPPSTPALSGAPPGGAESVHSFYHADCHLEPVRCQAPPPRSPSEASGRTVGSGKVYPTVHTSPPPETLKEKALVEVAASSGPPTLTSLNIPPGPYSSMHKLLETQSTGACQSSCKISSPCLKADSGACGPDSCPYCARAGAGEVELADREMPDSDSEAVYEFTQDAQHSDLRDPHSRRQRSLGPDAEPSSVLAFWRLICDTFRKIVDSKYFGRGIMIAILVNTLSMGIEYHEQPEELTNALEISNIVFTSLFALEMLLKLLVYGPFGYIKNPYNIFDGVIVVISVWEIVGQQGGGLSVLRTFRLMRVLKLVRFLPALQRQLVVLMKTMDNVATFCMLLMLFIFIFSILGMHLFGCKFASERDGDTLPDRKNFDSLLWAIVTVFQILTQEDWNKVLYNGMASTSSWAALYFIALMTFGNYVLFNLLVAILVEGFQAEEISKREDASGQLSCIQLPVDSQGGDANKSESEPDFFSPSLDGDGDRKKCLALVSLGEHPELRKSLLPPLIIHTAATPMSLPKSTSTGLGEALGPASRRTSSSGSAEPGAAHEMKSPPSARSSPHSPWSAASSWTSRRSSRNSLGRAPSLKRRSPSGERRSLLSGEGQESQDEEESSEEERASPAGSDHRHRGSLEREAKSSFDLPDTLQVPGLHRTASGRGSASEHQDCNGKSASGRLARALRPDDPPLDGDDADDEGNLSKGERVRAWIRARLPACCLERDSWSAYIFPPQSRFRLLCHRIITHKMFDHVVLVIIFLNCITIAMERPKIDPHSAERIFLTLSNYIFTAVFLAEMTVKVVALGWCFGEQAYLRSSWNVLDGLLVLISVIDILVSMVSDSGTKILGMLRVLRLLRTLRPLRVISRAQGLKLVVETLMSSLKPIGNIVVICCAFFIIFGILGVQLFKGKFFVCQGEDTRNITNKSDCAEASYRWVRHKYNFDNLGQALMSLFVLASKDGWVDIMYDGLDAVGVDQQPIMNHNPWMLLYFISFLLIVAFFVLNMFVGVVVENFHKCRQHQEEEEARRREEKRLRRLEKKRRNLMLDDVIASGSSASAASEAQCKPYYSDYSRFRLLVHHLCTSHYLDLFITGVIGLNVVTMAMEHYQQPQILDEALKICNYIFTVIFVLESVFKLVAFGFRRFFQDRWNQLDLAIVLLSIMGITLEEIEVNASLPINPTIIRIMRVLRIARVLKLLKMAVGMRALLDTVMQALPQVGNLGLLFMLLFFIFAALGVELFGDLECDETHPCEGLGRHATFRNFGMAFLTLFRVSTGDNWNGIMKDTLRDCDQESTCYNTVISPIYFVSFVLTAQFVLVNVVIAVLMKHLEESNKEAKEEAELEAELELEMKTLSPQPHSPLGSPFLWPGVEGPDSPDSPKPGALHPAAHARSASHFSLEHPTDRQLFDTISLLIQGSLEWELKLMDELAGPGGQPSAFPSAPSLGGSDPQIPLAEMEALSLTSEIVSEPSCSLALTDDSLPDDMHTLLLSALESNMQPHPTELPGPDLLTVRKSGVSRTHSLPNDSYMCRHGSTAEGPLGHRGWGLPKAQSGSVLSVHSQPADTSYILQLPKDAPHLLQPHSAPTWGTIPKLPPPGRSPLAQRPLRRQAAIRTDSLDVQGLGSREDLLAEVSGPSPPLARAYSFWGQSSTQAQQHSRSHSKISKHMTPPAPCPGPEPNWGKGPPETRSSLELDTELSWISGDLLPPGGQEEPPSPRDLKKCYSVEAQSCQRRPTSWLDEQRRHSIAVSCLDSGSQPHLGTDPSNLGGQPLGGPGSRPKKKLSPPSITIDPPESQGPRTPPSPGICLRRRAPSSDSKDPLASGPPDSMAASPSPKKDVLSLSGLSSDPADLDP
As to conditions: HEK cells stably expressing human α1G; measured at 1 μM drug; mainly non-inactivated protocol. As for the experimental part:
as §1, §2, §3, §4

As a reminder, the Kd is the concentration at which binding is half-saturated. For `Cc1c(C(=O)N2CCN(c3ccccc3)CC2)sc2ncn(CC(=O)Nc3ccccc3)c(=O)c12` [Compound 52, 2-(5-methyl-4-oxo-6-(4-phenylpiperazine-1-carbonyl)thieno[2,3-d]pyrimidin-3(4H)-yl)-N-phenylacetamide], the Kd in assay [1] worked out at 8790 nM; in assay [2] it was 350 nM; in assay [3], 1010 nM.

For `Cc1c(C(=O)N2CCN(c3cccc(F)c3)CC2)sc2ncn(CC(=O)NC3CCCCC3)c(=O)c12` [Compound 21, N-cyclohexyl-2-(6-(4-(3-fluorophenyl)piperazine-1-carbonyl)-5-methyl-4-oxothieno[2,3-d]pyrimidin-3(4H)-yl)acetamide], the Kd in assay [1] came out at 5200 nM; in assay [2], 190 nM; in assay [3], 610 nM.

As to `Cc1c(C(=O)N2CCN(c3ccc(Cl)c(Cl)c3)CC2)sc2ncn(CC(=O)N3CCCC3)c(=O)c12` [Compound 135, 6-(4-(3,4-dichlorophenyl)piperazine-1-carbonyl)-5-methyl-3-(2-oxo-2-(pyrrolidin-1-yl)ethyl)thieno[2,3-d]pyri-midin-4(3H)-one], the figures for the Kd in assay [1], in assay [2] and in assay [3] were 1380 nM, 330 nM and 9900 nM, respectively.

Take `Cc1c(C(=O)N2CCN(c3cccc(Cl)c3)CC2)sc2ncn(CC(=O)NC3CCCC3)c(=O)c12` [Compound 37, 2-(6-(4-(3-chlorophenyl)piperazine-1-carbonyl)-5-methyl-4-oxothieno[2,3-d]pyrimidin-3(4H)-yl)-N-cyclopentylacetamide]: the Kd in assay [1] came out at 3290 nM; in assay [2], 170 nM; in assay [3], 300 nM.

Regarding `Cc1c(C(=O)N2CCN(c3cc(C(F)(F)F)cc(C(F)(F)F)c3)CC2)sc2ncn(CC(=O)Nc3ccccc3)c(=O)c12` [Compound 53, 2-(6-(4-(3,5-bis(trifluoromethyl)phenyl)piperazine-1-carbonyl)-5-methyl-4-oxothieno[2,3-d]pyrimidin-3(4H)-yl)-N-phenylacetamide], the Kd in assay [1] is 580 nM; in assay [2], 1040 nM; in assay [3] it was 190 nM.

Regarding `Cc1c(C(=O)N2CCN(c3ccc(Cl)cc3)CC2)sc2ncn(CC(=O)NC3CCCCC3)c(=O)c12` [Compound 20, 2-(6-(4-(4-chlorophenyl)piperazine-1-carbonyl)-5-methyl-4-oxothieno[2,3-d]pyrimidin-3(4H)-yl)-N-cyclohexylacetamide], the Kd was 2100 nM in assay [1], 180 nM in assay [2] and 330 nM in assay [3].

Take `Cc1c(C(=O)N2CCN(c3cccc(Cl)c3)CC2)sc2ncn(CC(=O)N3CCCC3)c(=O)c12` [Compound 73, 6-(4-(3-chlorophenyl)piperazine-1-carbonyl)-5-methyl-3-(2-oxo-2-(pyrrolidin-1-yl)ethyl)thieno[2,3-d]pyrimidin-4(3H)-one]: the results for the Kd in assay [1], in assay [2] and in assay [3] were 8800 nM, 220 nM and 1460 nM, respectively.

Consider `CNC(=O)c1sc2ncn(CC(=O)Nc3cc(C(F)(F)F)cc(C(F)(F)F)c3)c(=O)c2c1C` [Compound 66, 3-(2-(3,5-bis(trifluoromethyl)phenylamino)-2-oxoethyl)-N,5-dimethyl-4-oxo-3,4-dihydrothieno[2,3-d]pyrimidine-6-carboxamide], for which the results for the Kd in assay [1], in assay [2] and in assay [3] were 1040 nM, 7590 nM and 350 nM, respectively.

Regarding `Cc1c(C(=O)N2CCN(c3ccccc3F)CC2)sc2ncn(CC(=O)Nc3cc(C(F)(F)F)cc(C(F)(F)F)c3)c(=O)c12` [Compound 64, N-(3,5-bis(trifluoromethyl)phenyl)-2-(6-(4-(2-fluorophenyl)piperazine-1-carbonyl)-5-methyl-4-oxothieno[2,3-d]pyrimidin-3(4H)-yl)acetamide], the Kd in assay [1] was 80 nM; in assay [2] it was 700 nM; in assay [3], 200 nM.
